Where a name gives a salt, the structure may show the parent alone.
Tests used:
Format in all cases: biochemical
human DPP-VIII = biological target: T1, human DPP-VIII (Homo sapiens, UniProt Q6V1X1); assay: DPP-VIII inhibition assay (Ala-Pro AMC), selectivity vs DPP-IV; settings: selectivity for DPP-IV relative to DPP-VIII
T1 construct: The full length cDNAs for human DPP-VII, DPP-VIII, DPP-IX, and FAP were obtained from Open Biosystems; 6xHis (C); made in house; host or cells: S9 (Sf9) insect cells, baculovirus (pFastBac, Bac-to-Bac)
Method: (§1) Materials. S9 insect cells and Sf-900 II SFM media were from Invitrogen. Anti-FLAG M2 immunoaffinity gel was from Sigma. Gly-Pro-AMC, Lys-Pro AMC, and Ala-Pro AMC were from Enzyme Systems. IC50 calculations were performed by non-linear regression analysis using Prism software (GraphPad).
(§2) Preparation of DPP-VII DPP-VIII DPP-IX, and FAP baculovirus constructs. The full length cDNAs for human DPP-VII, DPP-VIII, DPP-IX, and FAP were obtained from Open Biosystems. The cDNAs were cloned into the pFastBac vector with the addition of an N-terminal FLAG tag on DPP-VII, C-terminal 6× His tags on DPP-VIII and DPP-IX, and an N-terminal 6× His tag on FAP (Sun 2002, Qi 2003, and Chen 2004). Baculovirus was prepared using the Bac-to-Bac Baculovirus Expression System (Invitrogen). The cDNAs in the final baculovirus constructs were sequence verified.
(§3) Baculovirus expression. S9 cells were grown to mid log phase at 27C with shaking at 125 RPM and then adjusted to 2×10E6/ml just prior to baculovirus infection. Infection with DPP-VII, DPP-VIII, DPP-IX, and FAP baculoviral constructs were all performed at an MOI of 4. The infected cells were grown for 48 hours and the cell pellets harvested and frozen until purification. DPP-VII was purified using anti-FLAG immunoaffinity gel according to the manufacturer's instructions. DPP-VIII, DPP-IX, and FAP were purified using a B-PER 6× His Fusion Protein Column Purification Kit from Pierce.
(§4) C50 assay. Recombinant DPPs were diluted in reaction buffer to give fluorescence values of 5000-20000 counts in the “enzyme only wells” 20 min after addition of substrate at 27° C. Reaction buffers were 25 mM (2-(4-Morpholino)-Ethane Sulfonic Acid), pH 5.5 for DPP-VII, 25 mM Tris, pH 8, 1% Triton X-100, 100 mM NaCl for DPP-VIII, and 25 mM Tris pH 8 for DPP-IX and FAP. Test wells in a 96-well microtiter plate contained 88 uL of diluted DPP and 2.5 ul of titrated compound in 50 mM glycine, pH 2.6. “Enzyme only” wells contained 88 uL of diluted DPP and 2.5 ul of glycine buffer. “No enzyme” wells contained 88 uL of reaction buffer without DPP and 2.5 ul of glycine buffer. All assays were done in triplicate. The plate was incubated at 27° C. for 10 min and then cooled on ice for 10 min. Ten microliters of substrate diluted in reaction buffer (40 uM final concentration) without Triton or NaCl were then added to all wells followed by incubation at 27C for 20 min. Substrates were Lys-Pro AMC for DPP-VII, and Ala-Pro AMC for DPP-VIII, DPP-IX, and FAP. Fluorescence in each well was measured at settings of 380/460 nm.
(§5) Compounds of the invention were tested for inhibition of DPP-IV according to Example 4 and DPP-VII, VIII, IX and FAP according to the present methods.

human DPP-VII = biological target: T2, human DPP-VII (Homo sapiens, UniProt Q9UHL4); assay: DPP-VII inhibition assay (Lys-Pro AMC), selectivity vs DPP-IV; settings: selectivity for DPP-IV relative to DPP-VII
T2 construct: The full length cDNAs for human DPP-VII, DPP-VIII, DPP-IX, and FAP were obtained from Open Biosystems; FLAG (N); made in house; host or cells: S9 (Sf9) insect cells, baculovirus (pFastBac, Bac-to-Bac)
Method: as §1, §2, §3, §4, §5

human FAP = biological target: T3, human FAP (Homo sapiens, UniProt Q12884); assay: FAP inhibition assay (Ala-Pro AMC), selectivity vs DPP-IV; settings: selectivity for DPP-IV relative to FAP
T3 construct: The full length cDNAs for human DPP-VII, DPP-VIII, DPP-IX, and FAP were obtained from Open Biosystems; 6xHis (N); made in house; host or cells: S9 (Sf9) insect cells, baculovirus (pFastBac, Bac-to-Bac)
T3 sequence (Q12884 1-760): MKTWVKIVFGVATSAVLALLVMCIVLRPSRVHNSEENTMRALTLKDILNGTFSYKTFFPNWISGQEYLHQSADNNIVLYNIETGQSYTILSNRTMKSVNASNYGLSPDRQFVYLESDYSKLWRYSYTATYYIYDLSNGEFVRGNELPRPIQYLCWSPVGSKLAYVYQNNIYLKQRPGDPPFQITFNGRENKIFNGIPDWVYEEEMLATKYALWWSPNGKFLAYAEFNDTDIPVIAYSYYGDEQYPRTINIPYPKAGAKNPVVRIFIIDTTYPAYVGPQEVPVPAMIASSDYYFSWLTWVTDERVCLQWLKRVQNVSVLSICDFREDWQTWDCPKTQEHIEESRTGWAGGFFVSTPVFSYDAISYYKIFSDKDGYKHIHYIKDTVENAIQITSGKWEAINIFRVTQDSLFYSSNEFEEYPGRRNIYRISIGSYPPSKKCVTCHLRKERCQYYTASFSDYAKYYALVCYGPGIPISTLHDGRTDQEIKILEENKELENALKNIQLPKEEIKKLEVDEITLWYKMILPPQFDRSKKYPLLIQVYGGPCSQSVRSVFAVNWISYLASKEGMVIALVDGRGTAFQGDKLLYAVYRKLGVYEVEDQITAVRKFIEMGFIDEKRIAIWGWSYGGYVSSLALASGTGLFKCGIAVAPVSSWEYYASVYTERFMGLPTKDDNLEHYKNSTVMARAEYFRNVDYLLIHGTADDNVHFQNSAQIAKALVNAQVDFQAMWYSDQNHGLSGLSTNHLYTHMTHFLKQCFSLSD
Method: as §1, §2, §3, §4, §5

human DPP-IX = biological target: T4, human DPP-IX (Homo sapiens, UniProt Q86TI2); assay: DPP-IX inhibition assay (Ala-Pro AMC), selectivity vs DPP-IV; settings: selectivity for DPP-IV relative to DPP-IX
T4 construct: The full length cDNAs for human DPP-VII, DPP-VIII, DPP-IX, and FAP were obtained from Open Biosystems; 6xHis (C); made in house; host or cells: S9 (Sf9) insect cells, baculovirus (pFastBac, Bac-to-Bac)
Method: as §1, §2, §3, §4, §5

T1 sequence (Q6V1X1 whole entry): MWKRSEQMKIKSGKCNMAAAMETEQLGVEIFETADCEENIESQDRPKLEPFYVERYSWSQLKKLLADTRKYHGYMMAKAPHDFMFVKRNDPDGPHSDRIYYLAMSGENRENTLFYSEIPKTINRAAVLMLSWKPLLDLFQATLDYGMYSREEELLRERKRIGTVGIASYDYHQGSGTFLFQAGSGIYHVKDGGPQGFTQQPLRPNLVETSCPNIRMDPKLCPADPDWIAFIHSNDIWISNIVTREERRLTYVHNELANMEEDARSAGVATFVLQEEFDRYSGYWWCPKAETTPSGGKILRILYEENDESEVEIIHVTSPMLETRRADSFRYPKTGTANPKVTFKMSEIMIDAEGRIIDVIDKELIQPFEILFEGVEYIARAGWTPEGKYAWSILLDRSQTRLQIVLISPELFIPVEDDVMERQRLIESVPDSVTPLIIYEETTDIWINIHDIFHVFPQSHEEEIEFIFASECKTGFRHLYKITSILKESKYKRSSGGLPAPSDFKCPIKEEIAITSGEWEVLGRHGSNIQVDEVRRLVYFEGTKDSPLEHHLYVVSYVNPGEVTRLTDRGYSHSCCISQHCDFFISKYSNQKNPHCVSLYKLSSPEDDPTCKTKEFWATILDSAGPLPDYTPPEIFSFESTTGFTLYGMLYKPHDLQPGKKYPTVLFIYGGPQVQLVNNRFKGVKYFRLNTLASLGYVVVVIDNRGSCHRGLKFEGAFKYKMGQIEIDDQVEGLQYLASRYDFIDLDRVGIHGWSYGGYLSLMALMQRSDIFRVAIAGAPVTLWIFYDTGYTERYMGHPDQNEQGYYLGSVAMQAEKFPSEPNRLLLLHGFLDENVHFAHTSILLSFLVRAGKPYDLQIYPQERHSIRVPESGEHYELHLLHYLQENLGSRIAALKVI
T4 sequence (Q86TI2 whole entry): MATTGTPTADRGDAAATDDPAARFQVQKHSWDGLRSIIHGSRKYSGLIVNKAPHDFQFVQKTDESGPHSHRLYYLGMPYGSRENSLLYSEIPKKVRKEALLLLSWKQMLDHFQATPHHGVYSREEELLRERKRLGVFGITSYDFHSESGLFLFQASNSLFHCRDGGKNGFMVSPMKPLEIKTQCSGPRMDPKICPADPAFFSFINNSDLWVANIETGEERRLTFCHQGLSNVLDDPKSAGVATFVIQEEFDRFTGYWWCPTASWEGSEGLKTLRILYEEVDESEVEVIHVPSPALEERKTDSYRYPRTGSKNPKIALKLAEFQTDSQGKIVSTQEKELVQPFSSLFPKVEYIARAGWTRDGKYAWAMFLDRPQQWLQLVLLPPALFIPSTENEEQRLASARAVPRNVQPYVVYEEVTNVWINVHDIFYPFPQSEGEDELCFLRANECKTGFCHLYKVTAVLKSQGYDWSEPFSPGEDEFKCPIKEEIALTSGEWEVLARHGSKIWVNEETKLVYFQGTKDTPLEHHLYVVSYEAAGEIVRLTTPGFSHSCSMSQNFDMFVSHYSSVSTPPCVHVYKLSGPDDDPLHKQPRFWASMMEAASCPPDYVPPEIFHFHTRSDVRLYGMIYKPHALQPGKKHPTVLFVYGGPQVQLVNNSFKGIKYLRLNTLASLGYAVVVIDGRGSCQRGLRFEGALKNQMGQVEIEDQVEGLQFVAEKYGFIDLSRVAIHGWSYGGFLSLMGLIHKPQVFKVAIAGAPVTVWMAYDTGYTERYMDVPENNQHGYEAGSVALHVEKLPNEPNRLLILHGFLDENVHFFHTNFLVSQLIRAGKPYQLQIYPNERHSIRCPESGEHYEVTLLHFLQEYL

SMILES	Selectivity Ratios DPP-VIII (human DPP-VIII)	Selectivity Ratios DPP-VII (human DPP-VII)	Selectivity Ratios FAP (human FAP)	Selectivity Ratios DPP-IX (human DPP-IX)
Cl.N#C[C@@H]1CS[C@H]2C[C@](N)(c3ccccc3)C(=O)N12 [Compound 31, 6-Amino-5-oxo-6-phenyl-hexahydro-pyrrolo[2,1-b]thiazole-3-carbonitrile hydrochloride]	C (C ≧ 100)	C (C ≧ 100)	C (C ≧ 100)	B (10 < B < 100)
CC[C@H](C)[C@@]1(N)C[C@@H]2SC[C@@H](C#N)N2C1=O.Cl [Compound 26, 6-Amino-6-sec-butyl-5-oxo-hexahydro-pyrrolo[2,1-b]thiazole-3-carbonitrile hydrochloride]	B (10 < B < 100)	B (10 < B < 100)	C (C ≧ 100)	A (A ≦ 10)
Cl.N#C[C@@H]1CS[C@H]2C[C@@H](N)C(=O)N12 [Compound 7, 6-Amino-5-oxo-hexahydro-pyrrolo[2,1-b]thiazole-3-carbonitrile]	B (10 < B < 100)	C (C ≧ 100)	C (C ≧ 100)	A (A ≦ 10)
CC[C@@]1(N)C[C@@H]2SC[C@@H](C#N)N2C1=O.Cl [Compound 21, 6-Amino-6-ethyl-5-oxo-hexahydro-pyrrolo[2,1-b]thiazole-3-carbonitrile hydrochloride]	B (10 < B < 100)	C (C ≧ 100)	C (C ≧ 100)	A (A ≦ 10)
Cl.N#C[C@@H]1CS[C@H]2C[C@](N)(C3CCCC3)C(=O)N12 [Compound 23, 6-Amino-6-cyclopentyl-5-oxo-hexahydro-pyrrolo[2,1-b]thiazole-3-carbonitrile hydrochloride]	A (A ≦ 10)	B (10 < B < 100)	C (C ≧ 100)	A (A ≦ 10)
CC(C)C[C@@]1(N)C[C@@H]2SC[C@@H](C#N)N2C1=O.Cl [Compound 25, 6-Amino-6-isobutyl-5-oxo-hexahydro-pyrrolo[2,1-b]thiazole-3-carbonitrile hydrochloride]	B (10 < B < 100)	A (A ≦ 10)	C (C ≧ 100)	A (A ≦ 10)
N#CC1CSC2CC(N)(Cc3ccccc3)C(=O)N12 (centres unmarked) [Compound 28, 6-Amino-6-benzyl-5-oxo-hexahydro-pyrrolo[2,1-b]thiazole-3-carbonitrile hydrochloride]	B (10 < B < 100)	B (10 < B < 100)	B (10 < B < 100)	B (10 < B < 100)
Cl.N#C[C@@H]1CS[C@H]2C[C@](N)(CCc3ccccc3)C(=O)N12 [Compound 27, 6-Amino-5-oxo-6-phenethyl-hexahydro-pyrrolo[2,1-b]thiazole-3-carbonitrile hydrochloride]	A (A ≦ 10)	A (A ≦ 10)	B (10 < B < 100)	A (A ≦ 10)
Cl.N#C[C@@H]1CS[C@H]2C[C@](N)(CC3CCCCC3)C(=O)N12 [Compound 29, 6-Amino-6-cyclohexylmethyl-5-oxo-hexahydro-pyrrolo[2,1-b]thiazole-3-carbonitrile hydrochloride]	A (A ≦ 10)	A (A ≦ 10)	C (C ≧ 100)	A (A ≦ 10)
Cl.N#C[C@@H]1CS[C@H]2C[C@](N)(C3CCCCC3)C(=O)N12 [Compound 24, 6-Amino-6-cyclohexyl-5-oxo-hexahydro-pyrrolo[2,1-b]thiazole-3-carbonitrile hydrochloride]	A (A ≦ 10)	B (10 < B < 100)	C (C ≧ 100)	A (A ≦ 10)
Cl.N#C[C@@H]1CS[C@H]2C[C@@](N)(C3CCCC3)C(=O)N12 [Compound 33]	B (10 < B < 100)	B (10 < B < 100)	B (10 < B < 100)	A (A ≦ 10)
Cl.N#C[C@@H]1CS[C@H]2C[C@](N)(c3ccc(F)cc3)C(=O)N12 [Compound 30, 6-Amino-6-(4-fluoro-phenyl)-5-oxo-hexahydro-pyrrolo[2,1-b]thiazole-3-carbonitrile hydrochloride]	B (10 < B < 100)	B (10 < B < 100)	B (10 < B < 100)	A (A ≦ 10)
Cl.N#C[C@@H]1CS[C@H]2C[C@@](N)(c3ccccc3)C(=O)N12 [Compound 34]	B (10 < B < 100)	C (C ≧ 100)	C (C ≧ 100)	A (A ≦ 10)
CC(C)[C@@]1(N)C[C@@H]2SC[C@@H](C#N)N2C1=O.Cl [Compound 22, 6-Amino-6-isopropyl-5-oxo-hexahydro-pyrrolo[2,1-b]thiazole-3-carbonitrile hydrochloride]	B (10 < B < 100)	C (C ≧ 100)	C (C ≧ 100)	A (A ≦ 10)
